In patent US9475028B2 (priority 2006, dated 2016):
“Also recorded” adds a separate entry of the source.

Test system: A549 (Lung Mesothelial Carcinoma) cells
Assay type: cell-based

Question: How did the “observed damage to cells” value turn out when C60(OH)n (n˜1-48) [PHF] was run?
Answer: restricted to the top layer of cells; also recorded: damage of multiple layers of cells
